Assay results published in ChEMBL document CHEMBL1122074 (1982).
Active and inactive are the calls of the source. The calls are words filed in the database; no cut-off is given here.

How the values were obtained:
[1] = biological target: T1, Opioid receptor (Mus musculus) (UniProt P42866+P32300+P33534); assay: In vitro relative potency to morphine (IC50, 4.4E-8M) in mouse vas deferens was determined; inactive (potentiates contraction at >/=1.6E-6M); assay type: functional, tissue-based
[2] = biological target: T1, Opioid receptor (Mus musculus); assay: […] relative molar potency represents the morphine ED50 ([…])/compound ED50 using the hotplate procedure in mice; inactive at 140 umol/kg; assay type: functional
[3] = biological target: Opioid receptors; mu/kappa/delta (Homo sapiens) (UniProt P41145+P41143+P35372); assay: In vitro relative potency to morphine (IC50, 6.8E-8M) in guinea pig ileum was determined; inactive (potentiates contraction at >/=5.4E-8M); assay type: functional, tissue-based; settings: Cavia porcellus, target entry is the homologue from another species
[4] = Molar potency (1/IC50) in the guinea pig ileum divided by its potency in the mouse vas deferens.; assay type: functional

T1 sequence (P32300 whole entry, looked up): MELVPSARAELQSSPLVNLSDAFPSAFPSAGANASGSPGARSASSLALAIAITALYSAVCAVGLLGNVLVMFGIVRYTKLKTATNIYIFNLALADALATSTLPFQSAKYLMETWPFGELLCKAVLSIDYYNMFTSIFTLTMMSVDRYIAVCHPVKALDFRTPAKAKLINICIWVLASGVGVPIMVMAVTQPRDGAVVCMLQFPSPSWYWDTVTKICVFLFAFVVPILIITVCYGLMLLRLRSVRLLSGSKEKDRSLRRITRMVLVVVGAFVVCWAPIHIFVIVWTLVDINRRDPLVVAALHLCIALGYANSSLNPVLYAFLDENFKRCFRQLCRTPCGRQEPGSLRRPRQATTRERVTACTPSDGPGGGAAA
T1 sequence (P33534 whole entry, looked up): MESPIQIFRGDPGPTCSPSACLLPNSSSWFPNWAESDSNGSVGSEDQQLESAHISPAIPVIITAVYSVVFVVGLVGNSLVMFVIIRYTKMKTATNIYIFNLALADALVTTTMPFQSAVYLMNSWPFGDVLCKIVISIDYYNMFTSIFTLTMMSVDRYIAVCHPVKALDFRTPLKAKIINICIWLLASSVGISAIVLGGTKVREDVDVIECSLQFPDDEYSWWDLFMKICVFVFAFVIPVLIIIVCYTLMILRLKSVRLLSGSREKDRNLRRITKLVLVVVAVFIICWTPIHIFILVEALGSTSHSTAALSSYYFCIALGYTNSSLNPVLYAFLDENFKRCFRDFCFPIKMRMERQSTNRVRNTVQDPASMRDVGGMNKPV
T1 sequence (P42866 whole entry, looked up): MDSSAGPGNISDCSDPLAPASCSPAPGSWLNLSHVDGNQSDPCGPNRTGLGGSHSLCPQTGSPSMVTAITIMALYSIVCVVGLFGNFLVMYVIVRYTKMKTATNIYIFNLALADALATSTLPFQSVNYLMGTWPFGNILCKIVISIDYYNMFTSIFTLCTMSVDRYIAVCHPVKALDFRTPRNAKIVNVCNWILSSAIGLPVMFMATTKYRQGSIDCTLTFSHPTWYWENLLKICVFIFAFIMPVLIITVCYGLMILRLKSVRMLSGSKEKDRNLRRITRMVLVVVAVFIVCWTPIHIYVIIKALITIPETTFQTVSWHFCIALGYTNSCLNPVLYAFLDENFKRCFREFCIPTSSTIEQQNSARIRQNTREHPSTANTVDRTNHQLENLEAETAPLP
Sequence of Opioid receptors; mu/kappa/delta (Homo sapiens) (P35372 whole entry, looked up): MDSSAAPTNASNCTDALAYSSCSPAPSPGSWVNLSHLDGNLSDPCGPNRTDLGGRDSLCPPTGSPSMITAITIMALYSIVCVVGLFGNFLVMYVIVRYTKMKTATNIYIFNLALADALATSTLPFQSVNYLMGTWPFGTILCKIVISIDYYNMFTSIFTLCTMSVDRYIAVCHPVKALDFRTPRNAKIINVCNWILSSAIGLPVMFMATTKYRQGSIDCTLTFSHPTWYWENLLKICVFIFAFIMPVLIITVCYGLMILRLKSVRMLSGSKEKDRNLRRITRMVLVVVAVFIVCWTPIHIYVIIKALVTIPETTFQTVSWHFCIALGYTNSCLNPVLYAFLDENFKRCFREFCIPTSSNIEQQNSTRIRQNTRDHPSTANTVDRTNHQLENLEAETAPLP
Sequence of Opioid receptors; mu/kappa/delta (Homo sapiens) (P41143 whole entry, looked up): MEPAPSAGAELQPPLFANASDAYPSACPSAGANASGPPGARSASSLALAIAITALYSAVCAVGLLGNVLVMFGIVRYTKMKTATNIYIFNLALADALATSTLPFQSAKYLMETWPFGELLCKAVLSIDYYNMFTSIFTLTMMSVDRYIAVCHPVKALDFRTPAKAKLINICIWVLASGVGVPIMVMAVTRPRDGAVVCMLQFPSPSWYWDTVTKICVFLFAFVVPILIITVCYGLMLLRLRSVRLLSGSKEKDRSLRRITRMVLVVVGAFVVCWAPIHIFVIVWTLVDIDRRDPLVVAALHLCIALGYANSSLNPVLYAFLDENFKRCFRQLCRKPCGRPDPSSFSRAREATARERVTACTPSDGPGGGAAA
Sequence of Opioid receptors; mu/kappa/delta (Homo sapiens) (P41145 whole entry, looked up): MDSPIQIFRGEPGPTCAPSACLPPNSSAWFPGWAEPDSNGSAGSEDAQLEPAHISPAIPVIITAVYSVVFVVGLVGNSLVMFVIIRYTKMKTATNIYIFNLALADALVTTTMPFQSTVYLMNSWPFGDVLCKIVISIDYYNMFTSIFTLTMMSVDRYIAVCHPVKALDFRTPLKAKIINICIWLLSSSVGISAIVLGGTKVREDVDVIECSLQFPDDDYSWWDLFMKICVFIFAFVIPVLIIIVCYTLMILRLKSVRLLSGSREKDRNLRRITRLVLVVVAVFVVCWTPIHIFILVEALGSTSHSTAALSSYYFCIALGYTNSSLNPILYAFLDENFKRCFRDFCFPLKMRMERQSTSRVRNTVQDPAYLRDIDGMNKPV

| SMILES | Relative molar potency [1] | Relative molar potency [2] | Relative molar potency [3] | Molar potency [4] |
| --- | --- | --- | --- | --- |
| CCC(=O)C(c1ccccc1)(c1ccccc1)[C@@H](C)[C@H](C)N(C)C (racemic) | inactive | inactive | inactive | – |
| CCC(=O)C(c1ccccc1)(c1ccccc1)[C@H](C)[C@H](C)N(C)C (single isomer, unassigned) | – | – | – | 1.7 |
| CCC(=O)C(c1ccccc1)(c1ccccc1)C(C)CN(C)C (single isomer, unassigned) | – | – | – | 2.3 |
| CCC(=O)C(c1ccccc1)(c1ccccc1)[C@@H](C)[C@@H](C)N(C)C (single isomer, unassigned) | – | – | – | 6.9 |
| CN1CC[C@]23c4c5ccc(O)c4O[C@H]2[C@@H](O)C=C[C@H]3[C@H]1C5 [MORPHINE] | – | – | – | 6.5 |
